Test results taken from US20060257543A1, “Molecules comprising linked organic moieties as flavor modifiers for comestible compositions” (priority 2005, published 2006).
Read-outs that look alike come from different tables or passages of the source.

Assays:
[1] = biological target: T1, hT1R1/hT1R3 umami receptor expressed in an HEK293 cell line (Homo sapiens, UniProt Q7RTX0+Q7RTX1); assay: In vitro hT1R1/hT1R3 umami taste receptor activation assay (FLIPR, dose response); format: cell-based
T1 construct: expressed in transfected cells; host or cells: HEK293 derivative, clone I-17, expression induced with mifepristone
T1 sequence (Q7RTX1 21-841): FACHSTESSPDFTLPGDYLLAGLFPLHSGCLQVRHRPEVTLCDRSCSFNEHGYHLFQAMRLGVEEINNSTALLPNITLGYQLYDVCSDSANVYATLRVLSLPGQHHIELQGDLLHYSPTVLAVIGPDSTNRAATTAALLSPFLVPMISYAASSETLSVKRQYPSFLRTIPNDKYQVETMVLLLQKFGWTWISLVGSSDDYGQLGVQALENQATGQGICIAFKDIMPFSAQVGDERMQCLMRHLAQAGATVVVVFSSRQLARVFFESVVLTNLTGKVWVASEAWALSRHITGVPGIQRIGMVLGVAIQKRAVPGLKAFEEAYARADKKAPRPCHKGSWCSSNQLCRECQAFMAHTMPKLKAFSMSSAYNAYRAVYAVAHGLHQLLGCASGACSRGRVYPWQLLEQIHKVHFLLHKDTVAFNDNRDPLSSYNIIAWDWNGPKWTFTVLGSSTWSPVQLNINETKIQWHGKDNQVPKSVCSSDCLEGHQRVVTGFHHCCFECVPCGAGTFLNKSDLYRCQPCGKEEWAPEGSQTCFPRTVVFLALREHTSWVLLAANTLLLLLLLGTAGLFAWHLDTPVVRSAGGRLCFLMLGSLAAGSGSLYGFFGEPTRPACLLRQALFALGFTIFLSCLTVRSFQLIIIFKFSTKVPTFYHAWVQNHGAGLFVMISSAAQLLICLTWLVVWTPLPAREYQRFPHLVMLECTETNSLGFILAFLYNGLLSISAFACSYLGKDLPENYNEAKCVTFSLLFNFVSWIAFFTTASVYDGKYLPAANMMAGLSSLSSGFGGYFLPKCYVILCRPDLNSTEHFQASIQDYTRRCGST
T1 sequence (Q7RTX0 21-852): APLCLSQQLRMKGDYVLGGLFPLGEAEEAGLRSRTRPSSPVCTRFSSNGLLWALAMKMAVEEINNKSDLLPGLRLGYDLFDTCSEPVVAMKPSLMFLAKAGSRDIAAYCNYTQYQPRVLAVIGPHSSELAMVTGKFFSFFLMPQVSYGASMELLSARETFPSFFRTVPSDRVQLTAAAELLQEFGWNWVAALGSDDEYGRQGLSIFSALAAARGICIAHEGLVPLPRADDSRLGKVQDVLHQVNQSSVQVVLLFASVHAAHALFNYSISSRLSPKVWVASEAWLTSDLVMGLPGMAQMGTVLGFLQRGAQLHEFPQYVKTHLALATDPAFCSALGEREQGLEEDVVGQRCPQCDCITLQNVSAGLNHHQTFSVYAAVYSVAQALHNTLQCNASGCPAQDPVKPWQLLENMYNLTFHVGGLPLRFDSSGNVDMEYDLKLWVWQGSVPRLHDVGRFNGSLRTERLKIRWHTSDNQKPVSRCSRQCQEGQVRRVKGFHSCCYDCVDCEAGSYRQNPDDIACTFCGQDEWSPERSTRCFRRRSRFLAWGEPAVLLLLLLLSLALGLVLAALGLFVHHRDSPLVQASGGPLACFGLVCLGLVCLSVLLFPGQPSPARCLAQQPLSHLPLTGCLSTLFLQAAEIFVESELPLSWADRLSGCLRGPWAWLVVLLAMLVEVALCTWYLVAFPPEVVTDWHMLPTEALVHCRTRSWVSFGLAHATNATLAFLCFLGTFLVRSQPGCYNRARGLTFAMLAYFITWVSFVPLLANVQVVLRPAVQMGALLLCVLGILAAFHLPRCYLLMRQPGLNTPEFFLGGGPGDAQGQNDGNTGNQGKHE
Source text: In order to identify new savory flavoring agents and enhancers, including compounds with savory agonist and enhancer activities (dual activity), the tastant compounds of Formula (I) were screened in primary assays and secondary assays including compound dose response and enhancement assay. In a primary assay for potential ability to modulate umami taste, tastant compounds of Formula (I) that can be either savory flavoring agents in their own right or flavor enhancers of MSG are identified and scores of their activities are given as percentage of the maximum MSG intensity (%). In compound dose response, an EC50 is calculated to reflect the potency of the compound as a savory agonist or enhancer.
An HEK293 cell line derivative (see e.g., Chandrashekar, et al., Cell (2000) 100: 703-711) which stably expresses Gα15 and hT1R1/hT1R3 under an inducible promoter (see WO 03/001876 A2) was used to identify compounds with savory tasting properties.
Compounds disclosed in this application were initially selected based on their activity on the hT1R1/hT1R3-HEK293-Gα15 cell line. Activity was determined using an automated fluorometric imaging assay on a FLIPR instrument (Fluorometric Intensity Plate Reader, Molecular Devices, Sunnyvale, Calif.) (designated FLIPR assay). Cells from one clone (designated clone I-17) were seeded into 384-well plates (at approximately 48,000 cells per well) in a medium containing Dulbecco's modified Eagle's medium (DMEM) supplemented with GlutaMAX (Invitrogen, Carlsbad, Calif.), 10% dialyzed fetal bovine serum (Invitrogen, Carlsbad, Calif.), 100 Units/ml Penicillin G, 100 μg/ml Streptomycin (Invitrogen, Carlsbad, Calif.) and 60 pM mifepristone (to induce expression of hT1R1/hT1R3, (see WO 03/001876 A2). I-17 cells were grown for 48 hours at 37° C. I-17 cells were then loaded with the calcium dye Fluo-3AM (Molecular Probes, Eugene, Oreg.), 4 μM in a phosphate buffered saline (D-PBS) (Invitrogen, Carlsbad, Calif.), for 1.5 hours at room temperature. After replacement with 25 μl D-PBS, stimulation was performed in the FLIPR instrument and at room temperature by the addition of 25 μl D-PBS supplemented with different stimuli at concentrations corresponding to twice the desired final level. Receptor activity was quantified by determining the maximal fluorescence increases (using a 480 nm excitation and 535 nm emission) after normalization to basal fluorescence intensity measured before stimulation.
For dose-responses analysis, stimuli were presented in duplicates at 10 different concentrations ranging from 1.5 nM to 30 μM. Activities were normalized to the response obtained with 60 mM monosodium glutamate, a concentration that elicits maximum receptor response. EC50s (concentration of compound that causes 50% activation of receptor) were determined using a non-linear regression algorithm, where the Hill slope, bottom asymptotes and top asymptotes were allow to vary. Identical results were obtained when analyzing the dose-response data using commercially available software for non-linear regression analysis such as GraphPad PRISM (San Diego, Calif.).

[2] = biological target: T1, hT1R1/hT1R3 umami receptor expressed in an HEK293 cell line; assay: Umami taste enhancement activity assay (EC50 ratio vs. MSG); format: cell-based
Source text: In umami taste enhancement activity assay experiments, which produce an “EC50 ratio” measurement of how effectively the tastant compounds of the invention enhance the savory flavorant (typically MSG) already in a test solution. A series of measurements of the dose response is run in solutions comprising MSG alone, then a second dose response is run with MSG in combination with predetermined amounts of a candidate compound of Formula (I) at the same time.
In this assay, increasing concentrations of monosodium glutamate (ranging from 12 μM to 81 mM) were presented, in duplicates, in the presence or absence of a fixed concentration of the test compound. Typical compound concentrations tested were 30 μM, 10 μM, 3 μM, 1 μM, 0.3 μM, 0.1 μM and 0.03 μM. The relative efficacy of compounds of Formula (I) at enhancing the receptor was determined by calculating the magnitude of a shift in the EC50 for monosodium glutamate. Enhancement was defined as a ratio (EC50R) corresponding to the EC50 of monosodium glutamate, determined in the absence of the test compound, divided by the EC50 of monosodium glutamate, determined in the presence of the test compound.
Stated alternatively, “EC50 ratio” as compared to MSG is calculated based on the following definitions:
EC50 Ratio vs. MSG=EC50 (MSG)/EC50 (MSG+[Compound]) • wherein “[compound]” refers to the concentration of the compound of Formula (I) used to elicit (or enhance or potentiate) the MSG dose response.
It should be noted that the EC50 ratio measured can depend somewhat on the concentration of the compound itself. Preferred savory enhancers would have a high EC50 Ratio vs. MSG at a low concentration of the compound used. Preferably the EC50 ratio experiments to measure umami enhancement are run at a concentration of a compound of Formula (I) between about 10 μM to about 0.1 μM, or preferably at […] or 3.0 μM.

Row | Compound | EC50 ([1]; read-out: EC50 for activation of a hT1R1/hT1R3 umami receptor expressed in an HEK293 cell line) | EC50 ratio (enhanced the effectiveness of monosodium glutamate) ([2]; compound present at 0.03 μM) | EC50 ([1]; read-out: Umami EC50) | EC50 ratio (vs. MSG) ([2]; compound @ 3 μM) | EC50 ratio (vs. MSG) ([2]; compound @ 1 μM)
1 | CCCC(CCC)NC(=S)c1ccc2c(c1)OCO2 [Example 1, N-(heptan-4-yl)benzo[d][1,3]dioxole-5-carbothioamide] | 8.8 µM | 3 |  |  | 
2 | O=C(OCCCc1nc2ccccc2[nH]1)c1cccs1 [Example A6] |  |  | 3.5 µM | 4.4 | 
3 | O=C(OCCCn1ncc2ccccc2c1=O)c1cccs1 [Example A7] |  |  | 6 µM | 3.8 | 
4 | COc1ccc(CNc2ccccn2)cc1 [Example A8] |  |  | 11.8 µM |  | 3.1
5 | COc1ccc(CNc2nc3ccccn3n2)cc1 [Example A9] |  |  | 11.8 µM | 3.6 | 
6 | O=C(SCc1ccccn1)c1ccccc1 [Example A11] |  |  | 6.34 µM | 6.5 | 
7 | c1ccc2oc(SCc3cn4ccccc4n3)nc2c1 [Example A12] |  |  | 5.14 µM |  | 2.81
8 | c1ccc2sc(SCc3cn4ccsc4n3)nc2c1 [Example A13] |  |  | 5.19 µM | 3.6 | 
9 | S=C(NCCc1ccccn1)Nc1cccc(Cl)c1 [Example A17] |  |  | 4.53 µM |  | 4.7
10 | O=S(=O)(NCc1cc(F)cc2c1OCOC2)c1ccc(-c2ccccn2)s1 [Example A23] |  |  | 10.3 µM |  | 
